Reference: patent US12239643B2, “Therapeutic agent for inflammatory diseases, autoimmune diseases, fibrotic diseases, and cancer diseases” (MEIJI SEIKA PHARMA CO., LTD., priority 2018, dated 2025)

Tests used:
TNFα [1] = test: Cytokine suppression using whole human blood: TNFα (lipopolysaccharide stimulus); assay type: cell-based; settings: read-out: TNFα Inhibitory Activity, Human Whole Blood (Test Example 3)
TNFα [2] = test: Cytokine suppression using human peripheral blood mononuclear cells: TNFα; assay type: cell-based; settings: read-out: TNFα Inhibitory Activity, Human PBMC (Test Example 4)
Procedure: First, peripheral blood mononuclear cells (PBMC) were separated from whole blood by specific gravity centrifugation. Then, the isolated peripheral blood mononuclear cells were added to RPMI-1640 medium (containing 10% fetal bovine serum, penicillin, streptomycin, L-glutamine, and 2-mercaptoethanol), and cultured in a 96-well plate at 37° C. under 5% CO2 for 0 to 1 hour. The test compound dissolved in dimethyl sulfoxide was added to each well, followed by further culture at 37° C. under 5% CO2 for 1 hour. A medium containing only dimethyl sulfoxide instead of the test compound was added to the control well. To each well, lipopolysaccharide (final concentration 1 ng/mL) as a TNFα production stimulant and an IL-23 production stimulant, or concanavalin A (final concentration 20 μg/mL) as an IL-17A production stimulant was added, followed by culture at 37° C. under 5% CO2. In addition, as IL-4 production stimulus, IL-5 production stimulus, and IL-13 production stimulus, PBMC was seeded on a 96-well plate previously coated with a CD3 antibody (final concentration 3 μg/mL), and a CD28 antibody (final concentration 5 ng/mL) was added. The culture was carried out for about 18 hours for the evaluation of the amounts of TNFα and IL-23, and about 48 hours for the evaluation of the amounts of IL-17A, IL-4, IL-5, and IL-13. After collecting the culture supernatant after culturing, the amount of each cytokine was measured by the sandwich ELISA method in the same manner as in Test Example 3, and the cytokine production suppression rate (inhibition rate) and the cytokine inhibitory activity (concentration for the inhibition rate of 50%) of each test compound were calculated.
The measurement results obtained by measuring the TNFα inhibitory activity and IL-5 inhibitory activity (50% inhibitory concentration) of the test compounds by the above method were evaluated in accordance with the following evaluated basis; A: less than 10 nM, B: 10 nM or more and less than 100 nM, and C: 100 nM or more. In addition, the measurement results obtained by measuring the IL-17A inhibitory activity, IL-23 inhibitory activity, IL-4 inhibitory activity, and IL-13 inhibitory activity (50% inhibitory concentration) of the test compounds were evaluated in accordance with the following evaluated basis; A: less than 500 nM, B: 500 nM or more and less than 5000 nM, and C: 5000 nM or more.

[3] = test system: oxazolone-induced auricle edema, BALB/c mice; test: Hapten repeated application mouse chronic dermatitis model (oral, topical); assay type: in vivo; settings: for Mouse Chronic Dermatitis Model (Test Example 8), Oral: edema suppression rate: 0.3 to 10 mg/kg twice a day for 10 days; for Mouse Chronic Dermatitis Model (Test Example 8), Topical: edema suppression rate: 20 μL of 0.3 to 3% solution once or twice a day for 10 days
Procedure, shortened: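 Female BALB/c mice aged 7–8 weeks were sensitised abdominally with 3% oxazolone, then challenged on both ears with 1% oxazolone. From week 1, test compound was given for 10 days orally at 0.3–10 mg/kg twice daily in 0.5% MC, or topically at 0.3–3% once or twice daily. Ear-thickness change measured by dial gauge gave edema suppression versus vehicle control.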

[4] = human PBMC, lipopolysaccharide 1 ng/mL
[5] = Homo sapiens, human whole blood

SMILES	IC50 (TNFα [1]; human whole blood)	IC50 (TNFα [2]; [4])	Mouse Chronic Dermatitis Model (Test Example 8), Oral: edema suppression rate [3]	Mouse Chronic Dermatitis Model (Test Example 8), Topical: edema suppression rate [3]	IC50 (TNFα [1]; [5])	IC50 (TNFα [1]; Homo sapiens)	IC50 (TNFα [2]; Homo sapiens, PBMC)
CC(O)C(F)(F)Oc1ccc(-c2nccs2)c2oc(N3CC4CC(C3)N4)nc12 (single isomer, unassigned) [Example 252, 1-((2-(3,6-Diazabicyclo[3.1.1]heptan-3-yl)-7-(thiazol-2-yl)benzo[d]oxazol-4-yl)oxy)-1,1-difluoropropan-2-ol]	< 100 nM	< 10 nM	A (A: 70% or more)	A (A: 100% or more)			
FC(F)(F)Oc1ccc(-c2nccs2)c2oc(N3CC4CC(C3)N4)nc12 [Example 29, 2-(3,6-Diazabicyclo[3.1.1]heptan-3-yl)-7-(thiazol-2-yl)-4-(trifluoromethoxy)benzo[d]oxazole]			A (A: 70% or more)	A (A: 100% or more)	< 100 nM		
CC(C)(O)C(F)(F)Oc1ccc(-c2nccs2)c2oc(N3CC4CC(C3)N4)nc12 [Example 248, 1-((2-(3,6-Diazabicyclo[3.1.1]heptan-3-yl)-7-(thiazol-2-yl)benzo[d]oxazol-4-yl)oxy)-1,1-difluoro-2-methylpropan-2-ol]		< 10 nM	A (A: 70% or more)	A (A: 100% or more)	< 100 nM		
CCOc1cc([C@@H](CS(C)(=O)=O)N2C(=O)c3cccc(NC(C)=O)c3C2=O)ccc1OC [apremilast, reference compound]			B (B: 40% or more and less than 70%)			> 500 nM	10 to 100 nM
